From ChEMBL document CHEMBL3885861, “Open TG-GATES”

Species on record: Rattus norvegicus
Assay: Open TG-GATES - Regimen: Single
Format: toxicity, organism-based, Sprague-Dawley
Design: regimen Single, gender Male, age 6 weeks
Settings: in vivo, po, 150 mg/kg, route gavage, dose level High; for APTT / Bas / Eos / Fbg / Hb / Ht / Lym / MCH / MCHC / MCV / Mono / Neu / PT / Plat / RBC / Ret / WBC: tissue Blood; for KIDNEY_L / KIDNEY_R / KIDNEY_TOTAL: tissue Kidney; for LIVER: tissue Liver; for A/G / ALP / ALT / AST / BUN / CRE / Ca / Cl / DBIL / GLC / IP / K / LDH / Na / PL / RALB / TBIL / TC / TG / TP / gamma-GTP: tissue Plasma

`CC(C)C(=O)Nc1ccc([N+](=O)[O-])c(C(F)(F)F)c1` [FLUTAMIDE] showed a TERMINAL_BW (3 h) of 210.6 g, an APTT (3 h) of 19.7 s and a Bas (3 h) of 0%. For the same compound, the Eos (3 h) was 0.8%, the Fbg (3 h) was 220.4 mg/dL and the Hb (3 h) was 13.3 g/dL. For the same compound, the Ht (3 h) was 38.7%, the Lym (3 h) was 75% and the MCH (3 h) was 21.5 pg. The MCHC (3 h) was 34.4%, the MCV (3 h) was 62.6 fL and the Mono (3 h) was 3.6%. For the same compound, the Neu (3 h) was 19.8%, the PT (3 h) was 13 s and the Plat (3 h) was 121.6 x10_4/uL. The RBC (3 h) was 617.2 x10_4/ul, the Ret (3 h) was 7.5% and the WBC (3 h) was 89.1 x10_2/uL. The KIDNEY_L (3 h) was 0.9 g, the KIDNEY_R (3 h) was 0.9 g and the KIDNEY_TOTAL (3 h) was 1.8 g. The LIVER (3 h) was 9.3 g, the A/G (3 h) was 1.4 and the ALP (3 h) was 936.4 IU/L. It also gave an ALT (3 h) of 35.4 IU/L, an AST (3 h) of 69.8 IU/L and a BUN (3 h) of 9.4 mg/dL. For the same compound, the CRE (3 h) was 0.4 mg/dL, the Ca (3 h) was 10.6 mg/dL and the Cl (3 h) was 102.8 meq/L. It also gave a DBIL (3 h) of 0.1 mg/dL, a GLC (3 h) of 212.8 mg/dL and an IP (3 h) of 9.6 mg/dL. For the same compound, the K (3 h) was 3.7 meq/L, the LDH (3 h) was 158.4 IU/L and the Na (3 h) was 140.8 meq/L. For the same compound, the PL (3 h) was 152 mg/dL, the RALB (3 h) was 3.4 g/dL and the TBIL (3 h) was 0.2 mg/dL. For the same compound, the TC (3 h) was 78 mg/dL, the TG (3 h) was 77.4 mg/dL and the TP (3 h) was 5.7 g/dL. It also gave a gamma-GTP (3 h) of 1.4 IU/L, a TERMINAL_BW (6 h) of 207.7 g and an APTT (6 h) of 18.6 s. For the same compound, the Bas (6 h) was 0%, the Eos (6 h) was 0.6% and the Fbg (6 h) was 213 mg/dL. It also gave a Hb (6 h) of 13.4 g/dL, a Ht (6 h) of 38.9% and a Lym (6 h) of 79.6%. The MCH (6 h) was 21.3 pg, the MCHC (6 h) was 34.4% and the MCV (6 h) was 62.1 fL. For the same compound, the Mono (6 h) was 1.4%, the Neu (6 h) was 17.8% and the PT (6 h) was 12.7 s. The Plat (6 h) was 127.8 x10_4/uL, the RBC (6 h) was 626.6 x10_4/ul and the Ret (6 h) was 7.3%. It also gave a WBC (6 h) of 62.5 x10_2/uL, a KIDNEY_L (6 h) of 0.9 g and a KIDNEY_R (6 h) of 0.9 g. It also gave a KIDNEY_TOTAL (6 h) of 1.9 g, an LIVER (6 h) of 9.2 g and an A/G (6 h) of 1.6. It also gave an ALP (6 h) of 813 IU/L, an ALT (6 h) of 32.4 IU/L and an AST (6 h) of 63.8 IU/L. The BUN (6 h) was 11.2 mg/dL, the CRE (6 h) was 0.3 mg/dL and the Ca (6 h) was 10.8 mg/dL. The Cl (6 h) was 99.2 meq/L, the DBIL (6 h) was 0.08 mg/dL and the GLC (6 h) was 238.4 mg/dL. It also gave an IP (6 h) of 9.7 mg/dL, a K (6 h) of 3.8 meq/L and an LDH (6 h) of 132.6 IU/L. The Na (6 h) was 139.2 meq/L, the PL (6 h) was 148.6 mg/dL and the RALB (6 h) was 3.5 g/dL. It also gave a TBIL (6 h) of 0.1 mg/dL, a TC (6 h) of 84.4 mg/dL and a TG (6 h) of 33.2 mg/dL. For the same compound, the TP (6 h) was 5.7 g/dL, the gamma-GTP (6 h) was 1 IU/L and the TERMINAL_BW (9 h) was 207.4 g. The APTT (9 h) was 19.7 s, the Bas (9 h) was 0% and the Eos (9 h) was 0.8%. It also gave a Fbg (9 h) of 223.8 mg/dL, a Hb (9 h) of 13.1 g/dL and a Ht (9 h) of 38.5%. The Lym (9 h) was 77.4%, the MCH (9 h) was 21.6 pg and the MCHC (9 h) was 34%. It also gave an MCV (9 h) of 63.5 fL, a Mono (9 h) of 3.8% and a Neu (9 h) of 17%. For the same compound, the PT (9 h) was 12.8 s, the Plat (9 h) was 127.2 x10_4/uL and the RBC (9 h) was 605.6 x10_4/ul. The Ret (9 h) was 7.7%, the WBC (9 h) was 69.1 x10_2/uL and the KIDNEY_L (9 h) was 0.9 g. For the same compound, the KIDNEY_R (9 h) was 0.9 g, the KIDNEY_TOTAL (9 h) was 1.8 g and the LIVER (9 h) was 8.7 g. It also gave an A/G (9 h) of 1.6, an ALP (9 h) of 711.8 IU/L and an ALT (9 h) of 29.2 IU/L. The AST (9 h) was 57.6 IU/L, the BUN (9 h) was 10.2 mg/dL and the CRE (9 h) was 0.4 mg/dL. It also gave a Ca (9 h) of 10.5 mg/dL, a Cl (9 h) of 102.8 meq/L and a DBIL (9 h) of 0.07 mg/dL. It also gave a GLC (9 h) of 220.6 mg/dL, an IP (9 h) of 9.1 mg/dL and a K (9 h) of 3.8 meq/L. The LDH (9 h) was 149.4 IU/L, the Na (9 h) was 139.8 meq/L and the PL (9 h) was 165.4 mg/dL. The RALB (9 h) was 3.4 g/dL, the TBIL (9 h) was 0.1 mg/dL and the TC (9 h) was 89.6 mg/dL. The TG (9 h) was 73 mg/dL, the TP (9 h) was 5.7 g/dL and the gamma-GTP (9 h) was 0.8 IU/L. It also gave a TERMINAL_BW (24 h) of 213.1 g, an APTT (24 h) of 17.7 s and a Bas (24 h) of 0%. For the same compound, the Eos (24 h) was 1%, the Fbg (24 h) was 218 mg/dL and the Hb (24 h) was 13.1 g/dL. The Ht (24 h) was 39.3%, the Lym (24 h) was 82.4% and the MCH (24 h) was 21.6 pg. It also gave an MCHC (24 h) of 33.3%, an MCV (24 h) of 65 fL and a Mono (24 h) of 2.2%. It also gave a Neu (24 h) of 13.6%, a PT (24 h) of 12.8 s and a Plat (24 h) of 129.1 x10_4/uL. The RBC (24 h) was 605.4 x10_4/ul, the Ret (24 h) was 6.8% and the WBC (24 h) was 77.2 x10_2/uL. For the same compound, the KIDNEY_L (24 h) was 1 g, the KIDNEY_R (24 h) was 0.9 g and the KIDNEY_TOTAL (24 h) was 1.9 g. The LIVER (24 h) was 9.9 g, the A/G (24 h) was 1.4 and the ALP (24 h) was 990.6 IU/L. For the same compound, the ALT (24 h) was 32.6 IU/L, the AST (24 h) was 69.6 IU/L and the BUN (24 h) was 12.2 mg/dL. For the same compound, the CRE (24 h) was 0.4 mg/dL, the Ca (24 h) was 10.5 mg/dL and the Cl (24 h) was 104.4 meq/L. For the same compound, the DBIL (24 h) was 0.082 mg/dL, the GLC (24 h) was 213 mg/dL and the IP (24 h) was 7.5 mg/dL. For the same compound, the K (24 h) was 3.8 meq/L, the LDH (24 h) was 145.4 IU/L and the Na (24 h) was 141.2 meq/L. The PL (24 h) was 175.8 mg/dL, the RALB (24 h) was 3.3 g/dL and the TBIL (24 h) was 0.1 mg/dL. It also gave a TC (24 h) of 107.4 mg/dL, a TG (24 h) of 57.4 mg/dL and a TP (24 h) of 5.7 g/dL. It also gave a gamma-GTP (24 h) of 0.8 IU/L.
